Reference: patent publication US20240116985A1, “STAPLED PEPTIDES AND METHODS THEREOF” (priority 2020, published 2024)

Molecular target: T1, full-length beta-Catenin (Uniprot ID P35222) (Homo sapiens, UniProt P35222)
T1 construct: 10 nM full-length beta-Catenin (Uniprot ID P35222)
T1 sequence (P35222 1-781): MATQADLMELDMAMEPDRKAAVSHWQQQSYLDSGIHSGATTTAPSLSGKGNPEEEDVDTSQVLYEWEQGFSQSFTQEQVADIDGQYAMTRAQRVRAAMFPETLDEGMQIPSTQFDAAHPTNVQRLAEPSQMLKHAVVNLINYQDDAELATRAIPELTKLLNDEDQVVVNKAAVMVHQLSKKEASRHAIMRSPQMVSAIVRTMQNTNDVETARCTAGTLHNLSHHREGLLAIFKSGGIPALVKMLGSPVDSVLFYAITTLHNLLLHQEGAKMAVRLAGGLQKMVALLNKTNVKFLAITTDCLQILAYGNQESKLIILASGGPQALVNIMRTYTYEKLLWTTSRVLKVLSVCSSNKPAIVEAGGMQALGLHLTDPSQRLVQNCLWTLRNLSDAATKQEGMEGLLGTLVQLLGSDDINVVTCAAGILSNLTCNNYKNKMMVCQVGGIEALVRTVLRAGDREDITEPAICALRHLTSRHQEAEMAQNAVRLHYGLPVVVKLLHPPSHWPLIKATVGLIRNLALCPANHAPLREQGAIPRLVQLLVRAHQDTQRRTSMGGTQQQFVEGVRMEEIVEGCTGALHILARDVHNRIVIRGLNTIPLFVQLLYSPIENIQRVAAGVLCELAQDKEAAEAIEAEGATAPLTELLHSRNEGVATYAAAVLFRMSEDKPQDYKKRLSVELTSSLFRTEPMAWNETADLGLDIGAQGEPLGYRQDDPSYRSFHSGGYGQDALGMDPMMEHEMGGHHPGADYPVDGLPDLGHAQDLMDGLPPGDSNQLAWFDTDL
Test: Fluorescence polarization IC50 (beta-catenin / 5FAM-TCF4 10-53 competition)
Format: binding
Conditions: fluorescence polarization; read-out: beta-Catenin FP IC50

SMILES | IC50 [µM]
CC(=O)N1CCC[C@]12CCCCCCC1(CCCCCCCCOC(=O)N3CC[C@@](C(=O)N[C@@H](Cc4ccsc4)C(=O)N[C@@H](Cc4csc5ccccc45)C(=O)N[C@@H](CCC(N)=O)C(N)=O)(C3)NC(=O)[C@H](CC(C)C)NC(=O)[C@H](Cc3ccccc3)NC(=O)[C@H](C)NC(=O)[C@H](CCO)NC(=O)[C@H](CCC(N)=O)NC(=O)[C@H](CC(=O)O)NC1=O)NC(=O)[C@H](CC1CCCCC1)NC(=O)[C@H](CC(N)=O)NC2=O (stereo partly drawn) [I-2451, Ac-PL3-Asn-Cha-B5-Asp-Gln-Hse-Ala-Phe-Leu-PyrS2-3Thi-BztA-Gln-NH2] | 4.86
CC(=O)N1CCC[C@]12CCCCCCC1(CCCCCCCCOC(=O)N3CC[C@@](C(=O)N[C@@H](Cc4ccsc4)C(=O)N[C@@H](Cc4csc5ccccc45)C(=O)N[C@@H](CCC(N)=O)C(N)=O)(C3)NC(=O)[C@H](CC(C)C)NC(=O)[C@H](Cc3ccccc3)NC(=O)[C@H](C)NC(=O)[C@H](CCCCNC(C)C)NC(=O)[C@H](CCC(N)=O)NC(=O)[C@H](CC(=O)O)NC1=O)NC(=O)[C@H](CC1CCCCC1)NC(=O)[C@H](CC(N)=O)NC2=O (stereo partly drawn) [I-2452, Ac-PL3-Asn-Cha-B5-Asp-Gln-iPrLys-Ala-Phe-Leu-PyrS2-3Thi-BztA-Gln-NH2] | 7.2
CC(=O)N1CCC[C@]12CC=CCCCC1(CCCC=CCCCOC(=O)N3CC[C@@](C(=O)N[C@@H](Cc4ccccc4C(F)(F)F)C(=O)N[C@@H](Cc4ccc5ccccc5c4)C(=O)N[C@@H](C)C(N)=O)(C3)NC(=O)[C@H](CC(C)C)NC(=O)[C@H](Cc3ccccc3)NC(=O)[C@H](C)NC(=O)[C@H](CCC(N)=O)NC(=O)[C@H](Cc3cccc(C(=O)O)c3)NC(=O)[C@H](CC(=O)O)NC1=O)NC(=O)[C@H](CC(C)(C)C)NC(=O)[C@H](CC(=O)O)NC2=O (stereo partly drawn) [I-2461, Ac-PL3-Asp-Npg-B5-Asp-3COOHF-Gln-Ala-Phe-Leu-PyrS2-2F3MeF-2NapA-Ala-NH2] | 0.075

Next, values leading:

IC50 [µM] | SMILES
0.015 | CC(=O)N1CCC[C@]12CC=CCCCC1(CCCC=CCCCOC(=O)N3CC[C@@](C(=O)N[C@@H](Cc4ccccc4C(F)(F)F)C(=O)N[C@@H](Cc4csc5ccccc45)C(=O)N[C@@H](CCC(=O)N(C)C)C(=O)N[C@@H](C)C(N)=O)(C3)NC(=O)[C@H](CC(C)C)NC(=O)[C@H](Cc3ccccc3)NC(=O)[C@H](C)NC(=O)[C@H](C)NC(=O)[C@H](Cc3cccc(C(=O)O)c3)NC(=O)[C@H](CC(=O)O)NC1=O)NC(=O)[C@H](CC(C)(C)C)NC(=O)[C@H](CC(=O)O)NC2=O (stereo partly drawn) [I-2466, Ac-PL3-Asp-Npg-B5-Asp-3COOHF-Ala-Ala-Phe-Leu-PyrS2-2F3MeF-BztA-Me2Gln-Ala-NH2]
0.024 | CCNC(=O)CC[C@H](NC(=O)[C@H](Cc1csc2ccccc12)NC(=O)[C@H](Cc1ccccc1C(F)(F)F)NC(=O)[C@]12CCN(C1)C(=O)OCCCC=CCCCC1(CCCC=CC[C@]3(CCCN3C(C)=O)C(=O)N[C@@H](CC(=O)O)C(=O)N[C@@H](CC(C)(C)C)C(=O)N1)C(=O)N[C@@H](CC(=O)O)C(=O)N[C@@H](Cc1cccc(C(=O)O)c1)C(=O)N[C@@H](C)C(=O)N[C@@H](C)C(=O)N[C@@H](Cc1ccccc1)C(=O)N[C@@H](CC(C)C)C(=O)N2)C(=O)N[C@@H](C)C(N)=O (stereo partly drawn) [I-2470, Ac-PL3-Asp-Npg-B5-Asp-3COOHF-Ala-Ala-Phe-Leu-PyrS2-2F3MeF-BztA-NHEt]GlnR-Ala-NH2]
0.007 | CCNC(=O)CC[C@H](NC(=O)[C@H](Cc1csc2ccccc12)NC(=O)[C@H](Cc1ccsc1)NC(=O)[C@]12CCN(C1)C(=O)OCCCC=CCCCC1(CCCC=CC[C@]3(CCCN3C(C)=O)C(=O)N[C@@H](CC(=O)O)C(=O)N[C@@H](CC(C)(C)C)C(=O)N1)C(=O)N[C@@H](CC(=O)O)C(=O)N[C@@H](Cc1cccc(C(=O)O)c1)C(=O)NC(C)(C)C(=O)N[C@@H](C)C(=O)N[C@@H](Cc1ccccc1)C(=O)N[C@@H](CC)C(=O)N2)C(=O)N[C@@H](C)C(N)=O (stereo partly drawn) [I-2473, Ac-PL3-Asp-Npg-B5-Asp-3COOHF-Aib-Ala-Phe-Abu-PyrS2-3Thi-BztA-[NHEt]GlnR-Ala-NH2]
